Experiments:
[1] = tested on: Human breast cancer cells (MCF-7); test: Influence of betalain pigment on human breast cancer cells (AlamarBlue assay); format: cell-based; conditions: MCF-7 cells, concentration of 50 μM, cultured for 72 hours, p<0.05 vs untreated cells
Procedure: FIG. 14 show the results of evaluation of cell proliferation in MCF-7 cells. FIG. […] Cell proliferation was determined using an AlamarBlue assay according to the manufacturer's instructions. Bars represent the mean±SE (n=5). Symbol “*” represents p<0.05 as compared to untreated cells. […] Cells were examined under an inverted microscope. Bars represent 100 μm.
Human breast cancer cells (MCF-7) were received from the RIKEN BioResource Center. For the culture of the cells, Dulbecco's modified Eagle's medium-high glucose (4.5 g L^−1 glucose; DMEM-HG) supplemented with 10% FBS and antibiotics (100 U mL^−1 penicillin and 100 μg mL^−1 streptomycin) was used. The cells were cultured under the culture conditions of 37° C., a humidity of 100%, and a 5% CO2/95% air atmosphere. For the culture, the breast cancer cells were added at 5,000 cells per well on 96-well plates, and at the same time, amaranthin or betanin was added at different concentrations, and the cells were cultured for 72 hours. After that, the activity of the breast cancer cells was evaluated by an AlamarBlue assay (alamarBlue Cell Viability Reagent, Thermo Fisher Scientific). The procedure followed the accompanying instructions.

[2] = molecular target: T1, HIV-1 protease (Human immunodeficiency virus type 1 group M subtype B, UniProt P04585); test: Evaluation of HIV-1 protease inhibitory activity (residual substrate peptide by HPLC); format: biochemical; design: A recombinant HIV-1 protease (ab84117) from Abcam was used as an HIV-1 protease; purchased Abcam ab84117; conditions: 25° C., 2 hours, pH 4.7
Source text: FIG. 15 show the results of evaluation of inhibition of an HIV-1 protease. FIG. 15A includes HPLC chromatograms of HIV-1 protease reaction mixtures. Dashed and solid arrows indicate an HIV-1 protease substrate and its degradation product, respectively. (+) and (−)HIV-1 protease indicate reaction mixtures with and without the HIV-1 protease, respectively. (−)Betalain indicates a reaction mixture without betalain pigments. The horizontal axis indicates the retention time (min), and the vertical axis indicates the signal intensity (μV). […] Gray and black bars indicate reaction mixtures containing betanin and amaranthin, respectively. The white bar indicates the reaction mixture without betalain pigments as a negative control. Bars represent the mean±SE (n=3). Symbol “*” represents p<0.05 as compared to the reaction mixture without betalain pigments. 0, 10, 50, and 100 indicate 0-, 10-, 50-, and 100-fold amounts of betalain as compared to the HIV-1 protease. […]
After the reaction, the reaction liquid was measured for the amount of the residual substrate peptide through use of HPLC, and a residual ratio with respect to the substrate before the reaction was calculated. […] Analysis was performed with an analytical wavelength being set to 260 nm allowing the HIV-1 protease substrate peptide to be detected.

[3] = molecular target: T1, HIV-1 protease; conditions: literature virtual screening, not tested experimentally there; cited from earlier work

Compound	cancer cell activity of the breast cancer cells [1]	inhibitory activity on the HIV-1 protease ([2]; 10-, 50- and 100-fold amounts with respect to the HIV-1 protease)	virtual screening prediction as HIV-1 protease inhibitor [3]	activity of the HIV-1 protease ([2]; 100-fold amount with respect to the HIV-1 protease (16 pmol))
O=C(O)C1=C/C(=C/C=[N+]2/c3cc(O)c(OC4OC(CO)[C@@H](O)C(O)C4O)cc3CC2C(=O)[O-])CC(C(=O)O)N1 (stereo in doubt) [betanin, reference compound]	significantly suppressed	not found to have inhibitory activity	–	–
O=C(O)C1=C/C(=C/C=[N+]2c3cc(O)c(O[C@@H]4O[C@H](CO)[C@@H](O)[C@H](O)[C@H]4O[C@@H]4O[C@H](C(=O)O)[C@@H](O)[C@H](O)[C@H]4O)cc3C[C@H]2C(=O)[O-])C[C@@H](C(=O)O)N1 [amaranthin]	significantly suppressed	–	candidate of a novel HIV-1 protease inhibitor	significantly inhibited
